Test results reported in article PMC5729930, “Bitopic fluorescent antagonists of the A2A adenosine receptor based on pyrazolo[4,3-e][1,2,4]triazolo[1,5-c]pyrimidin-5-amine functionalized congeners” (MedChemComm, 2017).
Where two headings read alike, the source gives them in different places. Marks after values point to notes of the source that are not given here.

How the values were obtained:
[1] = molecular target: T1, A2AAR (Homo sapiens, UniProt P29274); experiment: Competition radioligand binding, hA2AAR ([3H]ZM241385 or [3H]CGS21680); settings: human A2AAR, HEK-293 membranes, [3H]ZM241385 1.0 nM, 1 h 25 °C, mean ± SEM; read-out: Affinity, Ki, A2A
T1 construct: expressed in transfected cells
T1 sequence (P29274 whole entry): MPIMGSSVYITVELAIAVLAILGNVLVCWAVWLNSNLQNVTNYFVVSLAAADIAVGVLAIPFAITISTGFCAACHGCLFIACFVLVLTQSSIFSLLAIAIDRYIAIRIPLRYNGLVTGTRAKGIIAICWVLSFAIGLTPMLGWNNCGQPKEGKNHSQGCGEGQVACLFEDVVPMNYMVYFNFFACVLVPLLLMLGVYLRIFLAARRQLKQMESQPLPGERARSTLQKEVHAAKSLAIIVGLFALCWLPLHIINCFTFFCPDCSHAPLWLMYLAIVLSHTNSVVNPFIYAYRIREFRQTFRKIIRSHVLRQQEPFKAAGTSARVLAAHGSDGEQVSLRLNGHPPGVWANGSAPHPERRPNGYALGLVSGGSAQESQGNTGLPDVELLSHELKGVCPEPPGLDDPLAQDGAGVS
Procedure: (§1) The affinity of the amine congeners and other antagonists was measured using standard radioligand binding assays for hA1, A2A and A3ARs (Table 1).[1],[13],[14],[22] Membranes of human embryonic kidney (HEK)293 cells expressing the AR of interest were used in the assay. Primary amine congeners 6a–6d containing spacers of 2–5 methylenes were similar in terms of hA2AAR affinity (Ki 6–9 nM), with the butylamino congener 6c displaying the highest A2AAR selectivity in the series. The affinity of this compound for the hA3AR was determined to be 6.0 μM, with only slightly higher hA1AR affinity. Homologation to 6 methylenes in compound 6e lowered A2AAR affinity. […] No dependence of the affinity on the chain length was evident when comparing AlexaFluor647 conjugates 9 and 10.
Fig. 1 Antagonist radioligand ([^3H]2, 1.0 nM) binding inhibition curves for the hA2AAR for four antagonist fluorescent conjugates. Compound numbers: MRS7322 9, MRS7395 10, MRS7396 11 and MRS7416 12. Membranes from HEK-293 cells expressing the hA2AAR were used, and their incubation was performed for 1 h at 25 °C. Results are expressed as the mean ± SEM.
(§2) Cell culture for membrane binding assays and flow cytometry: HEK-293 cells stably expressing the A2AAR were grown in Dulbecco’s Modified Eagle’s Medium (DMEM) with 10% FBS, 100 units/ml penicillin, […] streptomycin, 2 mM L-glutamine and 0.500 mg/mL G418 Sulfate (Geneticin). […]
(§3) Radioligand binding assays: Cell membranes were prepared as reported.1
(§4) Binding assays were carried out using standard radioligands and membrane preparations from HEK-293 cells stably expressing the human (h) A1, A2A or A3ARs or mouse (m) A1, A2A or A3ARs. The radioligands used were: A1AR, [3H]8-cyclopentyl-1,3-dipropylxanthine 14; A2AAR, [3H]2; A3AR, [125I]N6-(4-amino-3-iodobenzyl)adenosine-5′-N-methyluronamide 16. The radioligand for archival A2AAR affinity data presented in Table 1 was [3H]2-[p-(2-carboxyethyl)phenyl-ethylamino]-5′-N-ethylcarboxamidoadenosine 15. Nonspecific binding was determined using 10 µM 8-[4-[[[[(2-aminoethyl)amino]carbonyl]methyl]oxy]phenyl]-1,3-dipropylxanthine 17 (A1AR and A2AAR) or 10 µM adenosine-5′-N-ethyluronamide 18 (A3AR). HEK-293 cells expressing recombinant mA1, A2A, or A3AR […]
(§5) Protein was determined as reported.2 In all the binding experiments, IC50 values and Ki values were calculated using GraphPad Prism software (San Diego, CA). Values are expressed as mean±SEM. […]
(§6) Med. Chem. Comm., 2015, 6:555-563.
(§7) 2. Bradford, M. M. A rapid and sensitive method for the quantitation of microgram quantities of protein utilizing the principle of protein -dye binding. Anal. Biochem. 1976, 72, 248-254.

[2] = molecular target: T2, A1AR (Homo sapiens, UniProt P30542); experiment: Competition radioligand binding, hA1AR ([3H]DPCPX); settings: [3H]DPCPX 0.5 nM; for inhibition at 10 µM: percent inhibition at 10 μM; for Ki: HEK-293 membranes, 1 h 25 °C, mean ± SEM, read-out: Affinity, Ki, A1
T2 construct: expressed in transfected cells
T2 sequence (P30542 1-326): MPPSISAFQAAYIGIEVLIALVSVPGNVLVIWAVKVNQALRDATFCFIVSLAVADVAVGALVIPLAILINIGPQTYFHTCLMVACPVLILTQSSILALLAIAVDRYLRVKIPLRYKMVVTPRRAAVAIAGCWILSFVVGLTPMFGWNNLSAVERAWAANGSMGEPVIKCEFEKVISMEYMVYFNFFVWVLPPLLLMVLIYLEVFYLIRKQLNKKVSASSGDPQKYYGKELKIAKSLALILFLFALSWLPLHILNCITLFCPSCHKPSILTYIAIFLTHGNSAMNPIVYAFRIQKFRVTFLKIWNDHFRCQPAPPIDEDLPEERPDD
Procedure: as §1, with “10. […]” for “10.”
as §3, §4, §5, §6, §7

[3] = molecular target: T3, A3AR (Homo sapiens, UniProt P0DMS8); experiment: Competition radioligand binding, hA3AR ([125I]I-AB-MECA); settings: for inhibition at 10 µM: percent inhibition at 10 μM, read-out: % inhib, A3
T3 construct: expressed in transfected cells
T3 sequence (P0DMS8 1-318): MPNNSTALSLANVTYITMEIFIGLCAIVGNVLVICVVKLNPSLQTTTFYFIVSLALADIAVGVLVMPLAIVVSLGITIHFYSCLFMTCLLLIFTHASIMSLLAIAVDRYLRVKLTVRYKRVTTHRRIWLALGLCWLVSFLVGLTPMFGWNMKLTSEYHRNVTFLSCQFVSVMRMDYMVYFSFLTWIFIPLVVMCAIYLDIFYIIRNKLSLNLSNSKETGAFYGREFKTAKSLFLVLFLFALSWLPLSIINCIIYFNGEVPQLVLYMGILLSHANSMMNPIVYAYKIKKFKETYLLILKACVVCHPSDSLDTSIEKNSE
Procedure: as §1, with “10. […]” for “10.”
as §3, §4, §5, §6, §7

[4] = molecular target: T4, 5HT2B receptor (Homo sapiens, UniProt P41595); experiment: PDSP off-target radioligand binding, 5HT2B; settings: PDSP radioligand binding inhibition
T4 construct: PDSP (screening service)
T4 sequence (P41595 whole entry): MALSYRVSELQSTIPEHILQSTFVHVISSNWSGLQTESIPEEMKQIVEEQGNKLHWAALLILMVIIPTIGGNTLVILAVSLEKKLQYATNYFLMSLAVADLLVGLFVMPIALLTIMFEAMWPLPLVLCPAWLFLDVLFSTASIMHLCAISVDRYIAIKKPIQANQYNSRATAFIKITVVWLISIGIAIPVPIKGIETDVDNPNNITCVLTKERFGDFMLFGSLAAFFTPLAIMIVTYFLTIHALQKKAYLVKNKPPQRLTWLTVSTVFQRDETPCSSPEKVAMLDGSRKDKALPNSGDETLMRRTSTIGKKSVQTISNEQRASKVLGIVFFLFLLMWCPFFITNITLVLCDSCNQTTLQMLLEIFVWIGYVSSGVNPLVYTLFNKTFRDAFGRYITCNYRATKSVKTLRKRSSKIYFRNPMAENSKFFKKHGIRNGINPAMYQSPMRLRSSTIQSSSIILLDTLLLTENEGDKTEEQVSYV
Procedure: (§8) . Off-target binding activities at 45 diverse receptors were determined by PDSP[25] for selected compounds: 6c and 13 (ESI ^†). […]; 1.92 μM, 5HT2B receptor. Thus, the primary amine precursor of the fluorescent conjugates 10–12 was not promiscuous in its interaction with other proteins, i.e. this chemical series is not associated with pan-assay interference compounds.[26]
(§9) Chinese hamster ovary (CHO) cells stably expressing the human A2AAR were cultured in Dulbecco's Modified Eagle Medium (Mediatech, Manassas, VA) supplemented with 10% fetal bovine serum, 100 units/ml penicillin, 100 µg/ml streptomycin and 2 µmol/ml glutamine. Cells were plated in 96-well plates in 100 µl medium. After 24 h, the medium was removed and cells were washed three times with 100 µl DMEM, containing 50 mM HEPES, pH 7.4. Cells were treated with antagonists (or medium for control) in the presence of rolipram (10 µM) and adenosine deaminase (3 units/ml) and 5 min later with agonist for 20 min. The reaction was terminated by removal of the supernatant, and cells were lysed upon the addition of 100 µl of lysis buffer (0.3% Tween-20). cAMP was measured using ALPHAScreen cAMP kits (PerkinElmer, Boston, MA) as instructed by the manufacturer.
(§10) Refer to: http://pdspdb.unc.edu for full list of comprehensive screen at 45 targets.
(§11) 5HT2A serotonin receptor: […]

[5] = molecular target: T5, 5HT2A serotonin receptor (Homo sapiens, UniProt P28223); experiment: PDSP off-target radioligand binding, 5HT2A; settings: PDSP radioligand binding inhibition
T5 construct: PDSP (screening service)
T5 sequence (P28223 whole entry): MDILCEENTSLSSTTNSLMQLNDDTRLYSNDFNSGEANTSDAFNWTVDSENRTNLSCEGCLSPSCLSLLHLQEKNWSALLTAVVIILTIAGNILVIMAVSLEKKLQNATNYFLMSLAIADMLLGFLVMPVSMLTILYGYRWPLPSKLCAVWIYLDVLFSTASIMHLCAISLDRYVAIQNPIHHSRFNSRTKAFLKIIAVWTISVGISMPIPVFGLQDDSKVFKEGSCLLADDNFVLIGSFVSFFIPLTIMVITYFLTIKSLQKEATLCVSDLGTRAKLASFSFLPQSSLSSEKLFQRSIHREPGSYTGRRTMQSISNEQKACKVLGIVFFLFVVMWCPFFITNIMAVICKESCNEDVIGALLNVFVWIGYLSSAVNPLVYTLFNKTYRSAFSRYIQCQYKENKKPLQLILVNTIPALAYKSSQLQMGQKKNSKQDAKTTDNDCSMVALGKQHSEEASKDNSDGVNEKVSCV
Procedure: as §8, §9, §10, §11

[6] = molecular target: T6, mA3AR (Mus musculus, UniProt Q61618); experiment: Competition radioligand binding, mA3AR; settings: mouse A3AR, percent inhibition at 10 μM; read-out: % inhib, A3 (m) (converted)
T6 construct: expressed in transfected cells; host or cells: HEK-293
T6 sequence (Q61618 1-319): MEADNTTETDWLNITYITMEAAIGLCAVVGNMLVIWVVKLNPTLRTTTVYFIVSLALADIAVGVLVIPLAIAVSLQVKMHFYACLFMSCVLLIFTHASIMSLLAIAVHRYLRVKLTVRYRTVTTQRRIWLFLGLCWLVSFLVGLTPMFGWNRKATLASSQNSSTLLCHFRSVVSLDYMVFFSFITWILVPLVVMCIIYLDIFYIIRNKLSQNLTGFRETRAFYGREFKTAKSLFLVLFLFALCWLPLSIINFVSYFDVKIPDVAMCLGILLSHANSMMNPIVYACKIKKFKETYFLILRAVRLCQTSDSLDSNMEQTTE
Procedure: as §1, with “10. […]” for “10.”
as §3, §4, §5, §6, §7

[7] = molecular target: T7, mA1AR (Mus musculus, UniProt Q60612); experiment: Competition radioligand binding, mA1AR; settings: mouse A1AR, percent inhibition at 10 μM
T7 construct: expressed in transfected cells; host or cells: HEK-293
T7 sequence (Q60612 1-326): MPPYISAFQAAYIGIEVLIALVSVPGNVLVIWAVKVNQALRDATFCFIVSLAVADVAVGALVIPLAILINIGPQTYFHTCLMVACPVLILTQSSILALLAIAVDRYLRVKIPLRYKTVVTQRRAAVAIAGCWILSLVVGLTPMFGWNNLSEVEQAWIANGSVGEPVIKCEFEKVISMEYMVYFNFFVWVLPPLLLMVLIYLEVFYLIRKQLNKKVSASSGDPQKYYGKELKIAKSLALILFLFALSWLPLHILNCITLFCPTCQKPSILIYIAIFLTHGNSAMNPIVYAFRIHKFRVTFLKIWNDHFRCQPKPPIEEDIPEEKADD
Procedure: as §1, with “10. […]” for “10.”
as §3, §4, §5, §6, §7

[8] = molecular target: T8, mA2AAR (Mus musculus, UniProt Q60613); experiment: Competition radioligand binding, mA2AAR; settings: mouse A2AAR, HEK-293 membranes, mean ± SEM; read-out: Affinity, Ki, A2A (m) (converted)
T8 construct: expressed in transfected cells; host or cells: HEK-293
T8 sequence (Q60613 whole entry): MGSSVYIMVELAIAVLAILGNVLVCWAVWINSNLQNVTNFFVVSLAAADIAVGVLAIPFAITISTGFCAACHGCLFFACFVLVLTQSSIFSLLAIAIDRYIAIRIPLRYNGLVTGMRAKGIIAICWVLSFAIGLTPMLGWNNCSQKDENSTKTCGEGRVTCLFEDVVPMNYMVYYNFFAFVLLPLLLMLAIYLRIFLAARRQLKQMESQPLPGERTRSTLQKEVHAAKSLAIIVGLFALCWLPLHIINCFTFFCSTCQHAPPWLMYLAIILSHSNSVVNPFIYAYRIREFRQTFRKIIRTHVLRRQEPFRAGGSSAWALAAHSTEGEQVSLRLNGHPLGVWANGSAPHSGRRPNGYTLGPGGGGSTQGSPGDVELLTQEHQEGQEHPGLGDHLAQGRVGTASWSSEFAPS
Procedure: as §1, §2, §3, §4, §5, §6, §7

[9] = molecular target: T2, A1AR; parameters: method as in earlier work; settings: percent inhibition at 10 μM, 14 (Kumar et al. and Kecskés et al.); cited from earlier work
[10] = molecular target: T3, A3AR; parameters: method as in earlier work; settings: percent inhibition at 10 μM, 14 (Kumar et al. and Kecskés et al.); cited from earlier work
[11] = HEK-293 membranes, [125I]I-AB-MECA 0.2 nM, 1 h 25 °C, mean ± SEM, read-out: Affinity, Ki, A3

| SMILES | Ki [1] | Ki [2] | Ki [3, 11] | % inhib, A1 [9] | % inhib, A3 [10] | other results |
| --- | --- | --- | --- | --- | --- | --- |
| CC1(C)C(/C=C/C=C/C=C2/N(CCCS(=O)(=O)O)c3ccc(S(=O)(=O)O)cc3C2(C)CCCCCC(=O)NCCCCNC(=O)COc2ccc(CCCn3ncc4c3nc(N)n3nc(-c5ccco5)nc43)cc2)=[N+](CCCS(=O)(=O)O)c2ccc(S(=O)(=O)[O-])cc21 (stereo not drawn) [compound 10] | 0.295 ± 0.176 µM |  |  |  |  | inhibition at 10 µM [2]: 20%; inhibition at 10 µM ([3]; [125I]I-AB-MECA 0.2 nM): 21% |
| NCCCCNC(=O)COc1ccc(CCCn2ncc3c2nc(N)n2nc(-c4ccco4)nc32)cc1 [6c] | 0.00646 ± 0.00163 µM | 2.39 ± 0.1 µM | 5.99 ± 2.9 µM |  |  | Ki [4]: 1.92 µM; Ki [5]: 3.36 µM; Ki ([3]; read-out: affinity for the hA3AR): 6 µM |
| CC1(C)C(/C=C/C=C/C=C2/N(CCCS(=O)(=O)O)c3ccc(S(=O)(=O)O)cc3C2(C)CCCCCC(=O)NCCNC(=O)COc2ccc(CCCn3ncc4c3nc(N)n3nc(-c5ccco5)nc43)cc2)=[N+](CCCS(=O)(=O)O)c2ccc(S(=O)(=O)[O-])cc21 (stereo not drawn) [compound 9] | 0.332 ± 0.165 µM |  |  |  |  | inhibition at 10 µM [6]: 4%; inhibition at 10 µM [2]: 13%; inhibition at 10 µM [7]: 3%; Ki [8]: 0.458 µM; inhibition at 10 µM ([3]; [125I]I-AB-MECA 0.2 nM): 21% |
| NCCCNC(=O)COc1ccc(CCCn2ncc3c2nc(N)n2nc(-c4ccco4)nc32)cc1 [6b] | 0.00929 ± 0.00792 µM | 1.3 ± 0.35 µM | 2.17 ± 0.66 µM |  |  |  |
| Nc1nc2c(cnn2CCCc2ccc(O)cc2)c2nc(-c3ccco3)nn12 [compound 7] |  |  |  | (66 ± 2%) ^c | (34 ± 3%) ^c |  |
| NCCCCCCNC(=O)COc1ccc(CCCn2ncc3c2nc(N)n2nc(-c4ccco4)nc32)cc1 [6e] | 0.0228 ± 0.00845 µM | 6.5 ± 2.83 µM | 2.07 ± 0.85 µM |  |  |  |
| COc1ccc(CCCn2ncc3c2nc(N)n2nc(-c4ccco4)nc32)cc1 [compound 3, 5-amino-7-(3-(4-methoxy)phenylpropyl)-2-(2-furyl)pyrazolo[4,3-e]-1,2,4-triazolo[1,5-c]pyrimidine] |  |  |  | (35 ± 5%) ^c | (67 ± 1%) ^c |  |
| N=c1ccc2c(-c3ccc(C(=O)NCCNC(=O)COc4ccc(CCCn5ncc6c5nc(N)n5nc(-c7ccco7)nc65)cc4)cc3C(=O)O)c3ccc(N)c(S(=O)(=O)O)c3oc-2c1S(=O)(=O)O [compound 5] |  |  |  | (20 ± 3%) ^c | (4 ± 2%) ^c |  |
| NCCCCCNC(=O)COc1ccc(CCCn2ncc3c2nc(N)n2nc(-c4ccco4)nc32)cc1 [6d] | 0.00636 ± 0.00358 µM | 1.91 ± 0.12 µM | 0.656 ± 0.132 µM |  |  |  |
